Laboratory results taken from patent publication US20250282733A1, “NOVEL 1,2,3,4,4A,5,6,7,8,9,10,10A-DODECAHYDROBENZO[G]QUINOLIN-6-OL COMPOUNDS AND USES THEREOF” (priority 2022, published 2025).

Key:
Assay type in all cases: in vivo, rat
[1] = system: unilaterally 6-OHDA lesioned rats; assay: Contralateral rotations in unilaterally 6-OHDA lesioned rats; settings: for contralateral turns: dopamine-receptor agonist potency / duration of action as compared to that of apomorphine / bioavailability indicated by contralateral turns after IP and PO administration: 0.1 mg/kg, FIG. 4; for contralateral turns: dopamine-receptor agonist potency: IP (n=4) and PO (n=6); for duration of action as compared to that of apomorphine: IP and PO; for bioavailability indicated by contralateral turns after IP and PO administration: IP vs PO
Method: Male Sprague-Dawley rats (150 g; Scanbur, Sweden) were used for this study and housed in separate air-conditioned rooms (12-h dark/light cycle) at 20° C. and a humidity of 53%. Experiments were performed in agreement with the European Communities Council Directive of 24 Nov. 1986 (86/609/EEC) on the ethical use of animals and were approved by the local ethical committee at Karolinska Institute. In most of the experiments, unilaterally 6-OHDA lesioned rats were used to mimic aspects of Parkinsonism. Unilateral 6-OHDA lesioning of nigral dopaminergic axons was performed as previously described (Zhang et al., Neuropharmacology 54 (2008) 1143-1152). Briefly, rats were anesthetized with ketamine (100 mg/kg, i.p.; Parke-Davis, Boxmeer, Netherlands)/xylazine (5 mg/kg, i.p.; Bayer, Kiel, Germany), pretreated with desipramine (25 mg/kg, i.p.; Sigma, Stockholm, Sweden) and pargyline (5 mg/kg, i.p.; Sigma), placed in a stereotaxic instrument and injected with 6-OHDA (2.5 p.I of a 5 mg/ml solution; Sigma) into the medial forebrain bundle of the right hemisphere (AP—2.8 mm, ML—2.0 mm and V—9.0 mm). Two weeks after unilateral 6-OHDA lesioning, rats were administered with apomorphine (1 mg/kg, i.p; Sigma), and their contralateral rotations were measured. […] Only rats which rotated contralaterally more than 100 times were included in further experiments.
The time scale is minutes or hours after administration. […] Negative control animals were injected with saline.

Arc mRNA = assay: m-RNA analysis of Arc in brain regions (real-time PCR); settings: 0.3 and 1 μmol/kg SC, 60 min after injection, percent of control, FIG. 5
Method: (§1) Animals were killed 60 min after the injection of the drugs by decapitation.
(§2) The brains were dissected into a left and a right part. The left part was analyzed for gene expression and dissected into 4 different areas:
(§3) Limbic system (containing nucleus accumbens, most parts of the olfactory tubercle, ventral pallidum and amygdala), striatum, frontal cortex, and hippocampus.
(§4) Total RNA was prepared by RNeasy Plus Universal Tissue Mini Kit (Qiagen).
(§5) RNA pellets were dissolved in RNAse-free water and stored at −80° C. The sample concentration was determined spectrophotometrically by a NanoDrop ND-1000.
A two-step reversed transcription was performed by using a SuperScript III kit (Invitrogen). 1 μg of total RNA was reversed transcribed with 5 μl 2×RT Reaction Mix, 1 μl RT Enzyme and the mix volume was adjusted to 10 μl with RNAse-free water. The sample was incubated at 25° C. for 10 min, 50° C. for 30 min and finally 85° C. for 5 min. 1 U of E. coli RNase H was added following incubation at 37° C. for 20 min and 85° C. for 5 minutes. The cDNA solution was diluted 40 times in Tris EDTA buffer solution pH8 (Merck) and stored at −20° C.
Three sequences (arc and two reference genes) were amplified together in a triplex PCR-reaction. For real-time PCR measurements: 5 μl of the cDNA reaction was amplified in a 20 μl reaction mixture containing 10 μl PerfeCTa MultiPlex qPCR SuperMix (Quantabio), 3.5 μl RNAse-free water, 0.15 µM of each primer and 0.1 μM of each probe. Real-time PCR was measured on CFX96 (Bio-Rad) using the following settings for all genes: 3 min pre-incubation at 95° C. followed by 40 cycles of denaturation at 95° C. for 15 s, annealing and elongation at 60° C. for 1 min. Reference genes are HPRT and cyclophilin.
FIG. 5 illustrates the effects on tissue levels of Arc mRNA in four different regions of the brain (limbic regions, striatum, frontal cortex and hippocampus) after subcutaneous administration of two different compounds at two different doses as in comparison to that of corresponding control experiments. The bars in the left half of the figure represent the effects on ARC by the prior art compound according to Preparation 4A ((4aR,10aR)-1-propyl-1,2,3,4,4a,5,8,9,10,10a-decahydrobenzo[g]quinolin-6 (7H)-one) and the bars in the right half of the figure represent the effects on ARC by the compound of the present disclosure according to Example 4B ((4aR,10aR)-1-propyl-1,2,3,4,4a,5,6,7,8,9,10,10a-dodecahydrobenzo[g]quinolin-6-ol). The effects on tissue levels of Arc by both of the two aforementioned compounds were measured at two different doses (0.3 μmol/kg and 1 μmol/kg) and the effect is presented as percent of control means±SEM. Statistical significance was assessed using Student's t-test (2 tailed) vs controls.

egr-1 = assay: m-RNA analysis of egr-1 in brain regions (Taqman PCR); settings: SC
Method: as §1, §2, §3, §4, §5
(§6) A two-step reversed transcription was performed by using a SuperScript III kit (Invitrogen). 1 μg of total RNA was reversed transcribed with 5 μl 2×RT Reaction Mix, 1 μl RT Enzyme and the mix volume was adjusted to 10 μl with RNAse-free water. The sample was incubated at 25° C. for 10 min, 50° C. for 30 min and finally 85° C. for 5 min. […]
(§7) EGR-1 (Early growth response qRnoCEP0022872) was analyzed in duplex with the reference gene HPRT (hypoxanthine phosphoribosyltransferase qRnoCEP0050840). Npas4 (neuronal PAS domain protein4 qRnoCEP0029461) was analyzed in singleplex. The reference gene Ppia (cyclophilin A peptidyl-propyl cis-trans isomerase qRnoCIP0050815) was also analyzed in order to quantify gene expression for genes of interest.

Npas4 = assay: m-RNA analysis of Npas4 in brain regions (Taqman PCR); settings: SC
Method: as §1, §2, §3, §4, §5, §6, §7

[2] = system: non-pre-treated Sprague-Dawley rats; assay: Spontaneous locomotor activity (distance travelled); settings: 0.3 μmol/kg SC; for effect on motor activity (distance travelled): n=5, 0-180 min, vs saline, FIG. 6 and 7
Method: Behavioral activity was measured using eight Digiscan activity monitors (RXYZM (16) TAO, Omnitech Electronics, Columbus, OH, USA), connected to an Omnitech Digiscan analyzer and an Apple Macintosh computer equipped with a digital interface board (NB DIO-24, National Instruments, USA). Each activity monitor consisted of a quadratic metal frame (W×L=40 cm×40 cm) equipped with photo beam sensors. During measurements of behavioral activity, a rat was put in a transparent acrylic cage (W×L×H, 40×40×30 cm) which in turn was placed in the activity monitor. Each activity monitor was equipped with three rows of infrared photo beam sensors, each row consisting of 16 sensors. Two rows were placed along the front and the side of the floor of the cage, at a 90° angle, and the third row was placed 10 cm above the floor to measure vertical activity. Photo beam sensors were spaced 2.5 cm apart. Each activity monitor was fitted in an identical sound and light attenuating box containing a weak house light and a fan.
The computer software was written using object-oriented programming (LabVIEW™ National instruments, Austin, TX, USA).
Behavioral data from each activity monitor, representing the position (horizontal center of gravity and vertical activity) of the animal at each time, were recorded at a sampling frequency of 25 Hz and collected using a custom written LABView™ application. The data from each recording session were stored and analyzed with respect to distance traveled. Each behavioral recording session lasted 180 min, starting approximately 5 min after the injection of test compound.
Compounds disclosed herein have been tested for effects on spontaneous locomotor activity in non-pre-treated Sprague-Dawley rats (based on accumulated distance travelled 0-180 min post dosing), and with the single dose of 0.3 μmol/kg (n=5, SC) compared to a control group of animals (n=5) that obtained saline (SC). The unit of the distance travelled is an arbitrary unit.
The animals were placed in the motility meters immediately after administration and locomotor activity was recorded for 180 minutes.
Results are presented as distance travelled for the control group (empty bar) and for the group of animals that obtained the drug (filled bar).
The animals were placed in the motility meters immediately after administration and locomotor activity was recorded for 180 minutes. Results are presented as distance travelled for the control group (empty bars) and for the group of animals that obtained the drug (filled bar).

Row | SMILES | contralateral turns: dopamine-receptor agonist potency [1] | duration of action as compared to that of apomorphine [1] | bioavailability indicated by contralateral turns after IP and PO administration [1] | tissue levels of Arc in the frontal cortex (Arc mRNA) | tissue levels of Arc in the limbic regions (Arc mRNA) | tissue levels of egr-1 in the limbic regions (egr-1; 60 min after injection) | increase of egr-1 in the limbic regions compared to Preparation 4A (egr-1; vs prior art compound) | tissue levels of Npas4 in the limbic regions (Npas4; 60 min after injection) | increase of Npas4 in the limbic regions compared to Preparation 4A (Npas4; vs prior art compound) | on-set of action (distance travelled increases after the initial decrease) [2] | side effect profile, inferred from slower on-set of action [2] | effect on motor activity (distance travelled) [2] | time at which a long distance travelled is already reached (steep immediate effect) [2] | peak plasma concentration of the active species, inferred from locomotor data ([2]; compared to Example 4B) | contralateral turns as a function of time (course of effect) ([1]; 1 mg/kg i.p., FIG. 3)
1 | CCCN1CCC[C@@H]2CC3=C(CCC[C@H]3O)C[C@H]21 [Example 4B, (4aR,6R,10aR)-1-propyl-1,2,3,4,4a,5,6,7,8,9,10,10a-dodecahydrobenzo[g]quinolin-6-ol] | highly potent dopamine-receptor agonists | very long duration of action | good bioavailability | dose-dependently increase | dose-dependently increases | increases tissue levels | to a greater extent | increases tissue levels | to a greater extent | 35 to 40 min | no or a mild side effect profile | induce hyperactivity | – | – | –
2 | CCCN1CCC[C@@H]2CC3=C(CCCC3=O)C[C@H]21 [Preparation 4A, (4aR,10aR)-1-propyl-1,2,3,4,4a,5,8,9,10,10a-decahydrobenzo[g]quinolin-6 (7H)-one] | – | – | – | dose-dependently increase | does not have | – | – | – | – | 20 to 25 min | – | induce hyperactivity | 20 to 45 min | higher peak plasma concentration | –
3 | CN1CCc2cccc3c2[C@H]1Cc1ccc(O)c(O)c1-3 [apomorphine, reference compound] | – | – | – | – | – | – | – | – | – | – | – | – | – | – | declines over time
4 | CCCN1CCC[C@@H]2CC3=C(CCC[C@@H]3O)C[C@H]21 [epimer 2, (4aR,6S,10aR)-1-propyl-1,2,3,4,4a,5,6,7,8,9,10,10a-dodecahydrobenzo[g]quinolin-6-ol] | highly potent dopamine-receptor agonists | very long duration of action | good bioavailability | – | – | – | – | – | – | – | – | – | – | – | –
